Assays:
Experiment in all cases: kinase panel
Type in all cases: biochemical
Aurora-B(h) = Aurora-B(h) (Homo sapiens, UniProt Q96GD4)
Outline: (§1)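 % inhibition read-out; kinome panel of 231 kinases; one analogue run on a selected 98-kinase subset only.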

CDK3/cyclinE(h) = CDK3/cyclinE(h) (Homo sapiens, UniProt Q00526)
Outline: as §1

CHK1(h) = molecular target: T1, CHK1(h) (Homo sapiens, UniProt O14757)
T1 sequence (O14757 1-476): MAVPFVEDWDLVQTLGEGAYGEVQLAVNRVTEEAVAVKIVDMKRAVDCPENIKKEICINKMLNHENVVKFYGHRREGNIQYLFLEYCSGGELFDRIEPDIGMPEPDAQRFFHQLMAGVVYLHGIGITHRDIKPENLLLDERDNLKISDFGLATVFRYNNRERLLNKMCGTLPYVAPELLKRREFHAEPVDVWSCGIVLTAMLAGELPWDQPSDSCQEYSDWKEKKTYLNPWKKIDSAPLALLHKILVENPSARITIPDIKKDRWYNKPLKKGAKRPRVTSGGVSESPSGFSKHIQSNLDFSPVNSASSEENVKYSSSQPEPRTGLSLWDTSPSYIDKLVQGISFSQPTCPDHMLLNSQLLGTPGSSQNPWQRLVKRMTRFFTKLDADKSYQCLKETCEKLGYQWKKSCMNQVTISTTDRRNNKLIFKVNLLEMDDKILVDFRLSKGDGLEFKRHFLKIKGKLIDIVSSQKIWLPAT
Outline: as §1

CK1δ(h) = CK1δ(h) (Homo sapiens, UniProt P48730)
Outline: as §1

CK2(h) = CK2(h) (Homo sapiens, UniProt P68400)
Outline: as §1

GSK3α(h) = GSK3α(h) (Homo sapiens, UniProt P49840)
Outline: as §1

JAK3(h) = molecular target: T2, JAK3(h) (Homo sapiens, UniProt P52333)
T2 sequence (P52333 1-1124): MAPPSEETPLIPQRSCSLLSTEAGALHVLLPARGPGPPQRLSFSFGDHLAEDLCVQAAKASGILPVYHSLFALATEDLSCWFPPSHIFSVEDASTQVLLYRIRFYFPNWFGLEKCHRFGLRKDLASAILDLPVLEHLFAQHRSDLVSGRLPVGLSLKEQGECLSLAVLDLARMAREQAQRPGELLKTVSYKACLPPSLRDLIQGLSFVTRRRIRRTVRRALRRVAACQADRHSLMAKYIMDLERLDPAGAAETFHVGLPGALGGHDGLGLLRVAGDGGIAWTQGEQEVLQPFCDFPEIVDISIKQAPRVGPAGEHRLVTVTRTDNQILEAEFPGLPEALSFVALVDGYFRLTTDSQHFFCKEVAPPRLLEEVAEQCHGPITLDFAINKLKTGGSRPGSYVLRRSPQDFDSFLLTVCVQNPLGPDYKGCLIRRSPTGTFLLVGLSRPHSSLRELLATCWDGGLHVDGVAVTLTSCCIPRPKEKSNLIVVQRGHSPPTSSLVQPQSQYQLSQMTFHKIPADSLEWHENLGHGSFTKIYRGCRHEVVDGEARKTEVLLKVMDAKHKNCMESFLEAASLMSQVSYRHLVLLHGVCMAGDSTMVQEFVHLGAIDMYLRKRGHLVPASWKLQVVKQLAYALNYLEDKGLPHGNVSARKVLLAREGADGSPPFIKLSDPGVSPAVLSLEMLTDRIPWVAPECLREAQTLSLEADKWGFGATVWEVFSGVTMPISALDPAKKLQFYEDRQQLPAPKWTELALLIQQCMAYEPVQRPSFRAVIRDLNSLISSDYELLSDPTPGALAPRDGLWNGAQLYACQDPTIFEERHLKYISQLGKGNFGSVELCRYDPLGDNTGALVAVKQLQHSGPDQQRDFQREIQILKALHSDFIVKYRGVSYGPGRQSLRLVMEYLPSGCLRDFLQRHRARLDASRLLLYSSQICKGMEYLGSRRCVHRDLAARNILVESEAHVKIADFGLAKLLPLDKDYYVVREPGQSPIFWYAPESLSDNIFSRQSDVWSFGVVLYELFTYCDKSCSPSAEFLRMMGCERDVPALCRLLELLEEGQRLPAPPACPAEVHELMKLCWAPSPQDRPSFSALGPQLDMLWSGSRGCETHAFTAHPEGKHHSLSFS
Outline: as §1

JNK1α1(h) = JNK1α1(h) (Homo sapiens, UniProt P45983)
Outline: as §1

Lck(h) = Lck(h) (Homo sapiens, UniProt P06239)
Outline: as §1

MSK1(h) = MSK1(h) (Homo sapiens, UniProt O75582)
Outline: as §1

Pim-1(h) = Pim-1(h) (Homo sapiens, UniProt P11309)
Outline: as §1

ZAP-70(h) = molecular target: T3, ZAP-70(h) (Homo sapiens, UniProt P43403)
T3 sequence (P43403 1-619): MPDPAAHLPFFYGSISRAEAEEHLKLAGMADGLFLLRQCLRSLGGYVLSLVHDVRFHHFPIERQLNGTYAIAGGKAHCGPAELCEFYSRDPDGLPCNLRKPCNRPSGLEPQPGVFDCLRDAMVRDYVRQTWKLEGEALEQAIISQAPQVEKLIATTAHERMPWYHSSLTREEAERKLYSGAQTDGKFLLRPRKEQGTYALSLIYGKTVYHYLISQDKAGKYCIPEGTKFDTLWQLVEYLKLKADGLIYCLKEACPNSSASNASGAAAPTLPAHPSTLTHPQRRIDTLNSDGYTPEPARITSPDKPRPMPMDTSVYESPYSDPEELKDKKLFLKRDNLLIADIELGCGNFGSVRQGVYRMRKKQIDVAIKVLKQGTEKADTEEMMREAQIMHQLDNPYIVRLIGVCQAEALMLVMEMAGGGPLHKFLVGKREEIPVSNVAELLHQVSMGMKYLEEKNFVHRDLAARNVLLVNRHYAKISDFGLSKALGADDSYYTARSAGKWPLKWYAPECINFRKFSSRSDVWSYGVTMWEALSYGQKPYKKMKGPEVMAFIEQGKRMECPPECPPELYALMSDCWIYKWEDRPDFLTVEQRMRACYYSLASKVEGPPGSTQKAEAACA
Outline: as §1

Chain of CK1δ(h) (P48730 whole entry): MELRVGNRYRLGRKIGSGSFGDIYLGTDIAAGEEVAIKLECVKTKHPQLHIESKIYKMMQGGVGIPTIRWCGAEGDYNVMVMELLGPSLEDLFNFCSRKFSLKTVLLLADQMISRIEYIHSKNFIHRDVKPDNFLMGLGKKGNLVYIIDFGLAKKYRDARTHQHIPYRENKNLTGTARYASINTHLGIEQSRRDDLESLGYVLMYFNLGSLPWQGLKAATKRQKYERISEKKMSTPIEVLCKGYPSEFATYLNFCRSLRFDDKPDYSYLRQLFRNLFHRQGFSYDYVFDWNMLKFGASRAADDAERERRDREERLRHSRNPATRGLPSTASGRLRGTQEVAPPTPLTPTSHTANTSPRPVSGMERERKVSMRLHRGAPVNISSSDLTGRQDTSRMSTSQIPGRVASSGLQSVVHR
Chain of GSK3α(h) (P49840 whole entry): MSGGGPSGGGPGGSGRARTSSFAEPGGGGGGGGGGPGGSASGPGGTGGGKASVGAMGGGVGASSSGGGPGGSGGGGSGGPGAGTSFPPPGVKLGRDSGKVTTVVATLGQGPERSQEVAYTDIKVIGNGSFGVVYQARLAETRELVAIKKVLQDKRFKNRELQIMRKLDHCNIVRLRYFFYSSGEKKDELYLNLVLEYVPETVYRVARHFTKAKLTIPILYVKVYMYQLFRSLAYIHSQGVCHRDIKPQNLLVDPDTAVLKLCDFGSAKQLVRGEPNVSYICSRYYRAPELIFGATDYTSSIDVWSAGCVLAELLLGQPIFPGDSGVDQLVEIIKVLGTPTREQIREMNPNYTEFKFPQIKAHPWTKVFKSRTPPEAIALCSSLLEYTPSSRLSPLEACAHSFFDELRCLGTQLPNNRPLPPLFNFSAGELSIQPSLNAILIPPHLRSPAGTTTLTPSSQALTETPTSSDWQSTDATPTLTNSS
Chain of CK2(h) (P68400 whole entry): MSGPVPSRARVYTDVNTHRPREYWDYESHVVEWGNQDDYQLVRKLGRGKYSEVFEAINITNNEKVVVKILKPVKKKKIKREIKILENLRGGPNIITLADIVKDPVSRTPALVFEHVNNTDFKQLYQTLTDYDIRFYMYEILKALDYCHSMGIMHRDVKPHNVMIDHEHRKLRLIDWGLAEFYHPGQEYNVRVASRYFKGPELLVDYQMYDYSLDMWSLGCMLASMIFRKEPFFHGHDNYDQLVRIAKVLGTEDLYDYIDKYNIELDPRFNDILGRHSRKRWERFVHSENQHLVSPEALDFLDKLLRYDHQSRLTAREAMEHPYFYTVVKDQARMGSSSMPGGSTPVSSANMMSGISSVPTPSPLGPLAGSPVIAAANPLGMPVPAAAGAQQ
Chain of CK2(h) (P67870 whole entry partner): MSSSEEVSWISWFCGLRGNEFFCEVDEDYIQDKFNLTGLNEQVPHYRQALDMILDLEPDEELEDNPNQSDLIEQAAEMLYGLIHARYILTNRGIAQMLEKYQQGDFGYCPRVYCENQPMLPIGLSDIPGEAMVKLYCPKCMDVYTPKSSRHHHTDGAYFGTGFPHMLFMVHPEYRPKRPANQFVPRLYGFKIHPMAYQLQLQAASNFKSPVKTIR
Chain of Aurora-B(h) (Q96GD4 whole entry): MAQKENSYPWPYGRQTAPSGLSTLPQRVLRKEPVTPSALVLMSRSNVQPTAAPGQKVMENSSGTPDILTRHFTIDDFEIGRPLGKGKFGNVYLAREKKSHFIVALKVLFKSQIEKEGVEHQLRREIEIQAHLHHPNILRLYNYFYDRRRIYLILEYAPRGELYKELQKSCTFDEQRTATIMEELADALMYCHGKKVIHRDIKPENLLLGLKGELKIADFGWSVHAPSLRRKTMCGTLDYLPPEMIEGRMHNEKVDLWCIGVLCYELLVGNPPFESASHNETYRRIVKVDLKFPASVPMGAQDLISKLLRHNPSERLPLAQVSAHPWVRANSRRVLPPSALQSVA
Chain of Lck(h) (P06239 whole entry): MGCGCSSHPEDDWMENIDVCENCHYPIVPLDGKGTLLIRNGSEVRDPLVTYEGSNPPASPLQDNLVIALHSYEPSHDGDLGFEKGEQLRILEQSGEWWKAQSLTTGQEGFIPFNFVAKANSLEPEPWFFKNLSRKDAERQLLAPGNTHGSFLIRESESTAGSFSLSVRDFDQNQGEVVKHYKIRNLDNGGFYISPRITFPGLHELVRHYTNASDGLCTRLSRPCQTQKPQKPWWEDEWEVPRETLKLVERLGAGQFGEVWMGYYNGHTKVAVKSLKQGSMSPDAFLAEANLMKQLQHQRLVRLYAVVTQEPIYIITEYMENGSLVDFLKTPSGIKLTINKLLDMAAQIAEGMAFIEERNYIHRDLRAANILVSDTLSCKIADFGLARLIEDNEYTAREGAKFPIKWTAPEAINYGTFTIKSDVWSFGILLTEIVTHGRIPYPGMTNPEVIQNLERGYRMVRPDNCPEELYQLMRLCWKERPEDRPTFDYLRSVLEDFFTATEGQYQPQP
Chain of JNK1α1(h) (P45983 1-384 isoform P45983-2): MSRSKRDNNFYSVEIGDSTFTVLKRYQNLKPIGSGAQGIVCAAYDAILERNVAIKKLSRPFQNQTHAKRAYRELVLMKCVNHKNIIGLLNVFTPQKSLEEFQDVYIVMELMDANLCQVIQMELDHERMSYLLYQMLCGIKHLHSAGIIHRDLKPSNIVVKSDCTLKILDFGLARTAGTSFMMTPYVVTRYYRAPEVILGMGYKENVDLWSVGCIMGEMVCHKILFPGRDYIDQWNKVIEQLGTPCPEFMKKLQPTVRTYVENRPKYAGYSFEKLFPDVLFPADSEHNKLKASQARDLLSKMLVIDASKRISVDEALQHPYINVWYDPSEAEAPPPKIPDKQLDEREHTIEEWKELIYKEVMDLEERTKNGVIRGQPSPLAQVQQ
Chain of Pim-1(h) (P11309 whole entry): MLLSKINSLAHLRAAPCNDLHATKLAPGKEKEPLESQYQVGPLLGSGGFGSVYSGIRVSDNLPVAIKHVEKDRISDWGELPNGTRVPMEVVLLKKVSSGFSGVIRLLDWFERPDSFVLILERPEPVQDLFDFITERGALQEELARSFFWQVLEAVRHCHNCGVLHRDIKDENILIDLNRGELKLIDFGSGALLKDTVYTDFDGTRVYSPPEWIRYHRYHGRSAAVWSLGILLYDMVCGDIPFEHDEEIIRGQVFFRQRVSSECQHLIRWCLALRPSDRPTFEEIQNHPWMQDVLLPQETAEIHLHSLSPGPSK
Chain of CDK3/cyclinE(h) (Q00526 whole entry): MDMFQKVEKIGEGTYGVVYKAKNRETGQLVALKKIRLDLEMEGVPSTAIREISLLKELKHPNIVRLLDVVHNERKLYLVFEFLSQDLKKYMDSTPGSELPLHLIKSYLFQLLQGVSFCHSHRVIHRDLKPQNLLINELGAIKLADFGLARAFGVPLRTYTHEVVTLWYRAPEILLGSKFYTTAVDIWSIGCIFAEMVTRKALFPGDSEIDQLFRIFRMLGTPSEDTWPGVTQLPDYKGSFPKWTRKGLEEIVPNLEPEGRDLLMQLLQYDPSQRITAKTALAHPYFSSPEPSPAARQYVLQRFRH
Chain of CDK3/cyclinE(h) (P24864 whole entry partner): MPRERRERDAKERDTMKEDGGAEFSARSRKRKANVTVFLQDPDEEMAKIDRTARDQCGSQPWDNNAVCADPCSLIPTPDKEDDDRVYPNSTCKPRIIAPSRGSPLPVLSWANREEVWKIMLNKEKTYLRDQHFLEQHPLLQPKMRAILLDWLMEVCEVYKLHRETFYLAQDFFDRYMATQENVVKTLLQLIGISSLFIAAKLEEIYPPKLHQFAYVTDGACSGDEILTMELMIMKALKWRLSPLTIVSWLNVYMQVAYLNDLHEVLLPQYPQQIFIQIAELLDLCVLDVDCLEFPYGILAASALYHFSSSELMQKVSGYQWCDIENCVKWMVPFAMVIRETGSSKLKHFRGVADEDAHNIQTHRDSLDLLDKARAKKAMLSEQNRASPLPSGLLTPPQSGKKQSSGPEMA
Chain of MSK1(h) (O75582 whole entry): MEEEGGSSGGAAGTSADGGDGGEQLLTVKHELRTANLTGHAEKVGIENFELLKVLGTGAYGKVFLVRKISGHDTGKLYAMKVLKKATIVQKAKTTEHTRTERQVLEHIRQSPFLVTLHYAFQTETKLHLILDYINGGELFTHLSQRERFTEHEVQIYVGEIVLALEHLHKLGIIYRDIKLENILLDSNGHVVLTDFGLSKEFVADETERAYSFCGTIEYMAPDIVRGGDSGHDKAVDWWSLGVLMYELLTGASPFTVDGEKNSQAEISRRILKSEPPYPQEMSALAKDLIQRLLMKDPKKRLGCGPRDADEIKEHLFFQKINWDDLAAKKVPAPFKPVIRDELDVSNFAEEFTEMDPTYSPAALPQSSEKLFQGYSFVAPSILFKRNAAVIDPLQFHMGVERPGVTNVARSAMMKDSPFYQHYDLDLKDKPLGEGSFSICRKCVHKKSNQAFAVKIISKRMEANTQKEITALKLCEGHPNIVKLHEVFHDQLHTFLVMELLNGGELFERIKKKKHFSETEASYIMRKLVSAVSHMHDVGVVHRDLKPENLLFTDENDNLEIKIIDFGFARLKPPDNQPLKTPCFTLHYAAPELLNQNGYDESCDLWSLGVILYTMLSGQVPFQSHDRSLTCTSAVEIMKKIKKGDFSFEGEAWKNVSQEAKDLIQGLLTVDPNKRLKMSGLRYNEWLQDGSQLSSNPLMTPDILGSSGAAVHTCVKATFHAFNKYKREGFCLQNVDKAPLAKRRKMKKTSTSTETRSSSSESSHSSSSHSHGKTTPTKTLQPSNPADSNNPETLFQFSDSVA

Row | inhibition at 1 µM (Aurora-B(h)) [%] | inhibition at 1 µM (CDK3/cyclinE(h)) [%] | inhibition at 1 µM (CHK1(h)) [%] | inhibition at 1 µM (CK1δ(h)) [%] | inhibition at 1 µM (CK2(h)) [%] | inhibition at 1 µM (GSK3α(h)) [%] | inhibition at 1 µM (JAK3(h)) [%] | inhibition at 1 µM (JNK1α1(h)) [%] | inhibition at 1 µM (Lck(h)) [%] | inhibition at 1 µM (MSK1(h)) [%] | inhibition at 1 µM (Pim-1(h)) [%] | inhibition at 1 µM (ZAP-70(h)) [%] | Compound
1 | 71 | 37 | -9 | 5 | 2 | 27 | 18 | 25 | -19 | -4 | 8 | -22 | Nc1n[nH]c2ccc(-c3ccnc4[nH]c(-c5ccnc(OCc6ccccc6)c5)cc34)cc12 [Compound 6g [SU1349]]
2 | 99 | 94 | -2 | 58 | -7 | 95 | 76 | 80 | 48 | -2 | 23 | -8 | Nc1n[nH]c2ccc(-c3ccnc4[nH]c(-c5ccccc5)cc34)cc12 [Compound 4]
3 | 92 | 45 | -2 | 14 | -5 | 74 | 30 | 12 | 34 | -24 | -1 | -27 | Nc1n[nH]c2ccc(-c3ccnc4[nH]c(-c5cccc(OCc6ccccc6)c5)cc34)cc12 [Compound 5r [SU1261]]
